Measured values taken from PubChem BioAssay AID488825 (NMMLSC, 2010).

Test system: S. cerevisiae CIT2-GFP strain, flow cytometry fluorescence, 3 h
Assay: CIT2-GFP expression modulators in yeast, SAR follow-up, flow cytometry, cherry pick 3, dose response (AID 488825)

EC50: 5.72 µM
SMILES: CNc1nc(N)c([N+](=O)[O-])c(Nc2cccc(Cl)c2)n1
